Measurements as given in article PMC11726150, “Pre‐ADMET studies of 5‐(3′,4′‐dihydroxyphenyl)‐γ‐valerolactone, the bioactive intestinal metabolite of proanthocyanidins” (Archiv Der Pharmazie, 2024).
pIC50: −log10 of the molar value. “Also recorded” adds a separate entry of the source.

How the values were obtained:
PXR = molecular target: T1, PXR (Homo sapiens, UniProt O75469); format: cell-based; parameters: expressed in transfected cells; host or cells: HepG2 and LS174T cells, transient electroporation; settings: HepG2 cells, all concentrations tested (1.5–50 μM), 24 h
T1 sequence (O75469 1-434): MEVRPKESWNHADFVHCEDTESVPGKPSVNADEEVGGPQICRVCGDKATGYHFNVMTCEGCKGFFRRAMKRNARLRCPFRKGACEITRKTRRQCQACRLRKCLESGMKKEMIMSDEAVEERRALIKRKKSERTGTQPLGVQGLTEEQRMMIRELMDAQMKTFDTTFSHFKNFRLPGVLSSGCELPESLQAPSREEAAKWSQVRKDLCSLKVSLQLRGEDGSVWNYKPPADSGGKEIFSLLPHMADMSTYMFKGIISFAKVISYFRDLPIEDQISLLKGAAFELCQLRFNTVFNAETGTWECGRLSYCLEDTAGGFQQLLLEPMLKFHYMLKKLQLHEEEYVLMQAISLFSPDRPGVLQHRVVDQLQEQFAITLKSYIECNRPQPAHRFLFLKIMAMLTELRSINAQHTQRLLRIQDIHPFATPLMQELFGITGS
Procedure: The PXR activation potential of VL was determined in transiently transfected HepG2 and LS174T cells as described earlier.^[ [50] ^] In brief, 24‐h‐old cells having 70%−80% confluency were trypsinized and transfected with pSG5‐hPXR (25 μg) and PCR‐5 (25 μg) plasmid DNA by electroporation at 180 V (1 pulse for 70 ms). Cells were incubated at room temperature for 8 min and floating dead cells were carefully removed. Cells were seeded in 96‐well plates at a density of 50,000 cells/well. […] Following 24 h of incubation, the culture medium was aspirated and 40 μL of luciferase reagent (Promega Corporation) was added to each well. Luminescence was measured using a Spectramax M5 plate reader (Molecular Devices) and the fold increase in luciferase activity among sample‐treated cells was calculated in comparison with the vehicle‐treated (DMSO) cells.

MTT cell viability assay = format: cell-based, human; settings: human, Caco2 cells; Caco2, 1.5–50 µM, 6 h exposure; read-out: cells remaining viable
Procedure: (§1) The effect of test samples on cell viability was measured using an MTT assay. Briefly, exponentially growing 2 × 10^4 cells/200 μL were seeded in 96‐well plates and allowed to grow until reaching their differentiation state. Cells were treated with different concentrations of VL (50–1.6 µM) and positive control camptothecin (30–1 μM) serially diluted in serum‐free medium. After incubation, 10 μL of MTT dye (5 mg/mL stock in PBS) was added to each well, and plates were additionally incubated for 4 h. Further, media were aspirated, and cells were washed with 100 μL of phosphate buffer saline. The formazan blue crystals formed by viable cells were dissolved in 150 μL of DMSO, and the absorbance was measured at 580 nm on a Bio‐Tek, Synergy HT Multi‐Mode, plate reader. The % decrease in viability of sample‐treated cells was calculated compared with vehicle‐treated cells.^[ [46] ^]

Caco2 cells = experiment: MTT cell viability assay; format: cell-based, human; settings: Caco2, 1.5–50 µM, up to 24 and 48 h
Procedure: as §1

HepG2 cells = experiment: MTT cell viability assay; format: cell-based, human; settings: HepG2, 1.5–50 µM, up to 24 and 48 h
Procedure: as §1

LS174T cells = experiment: MTT cell viability assay; format: cell-based, human; settings: 1.5–50 µM, up to 24 and 48 h
Procedure: as §1

CYP3A4 = molecular target: T2, CYP3A4 (Homo sapiens, UniProt P08684); experiment: CYP inhibition assay; format: biochemical; settings: read-out: half‐maximal inhibitory concentration (IC50)
T2 construct: purchased
T2 sequence (P08684 whole entry): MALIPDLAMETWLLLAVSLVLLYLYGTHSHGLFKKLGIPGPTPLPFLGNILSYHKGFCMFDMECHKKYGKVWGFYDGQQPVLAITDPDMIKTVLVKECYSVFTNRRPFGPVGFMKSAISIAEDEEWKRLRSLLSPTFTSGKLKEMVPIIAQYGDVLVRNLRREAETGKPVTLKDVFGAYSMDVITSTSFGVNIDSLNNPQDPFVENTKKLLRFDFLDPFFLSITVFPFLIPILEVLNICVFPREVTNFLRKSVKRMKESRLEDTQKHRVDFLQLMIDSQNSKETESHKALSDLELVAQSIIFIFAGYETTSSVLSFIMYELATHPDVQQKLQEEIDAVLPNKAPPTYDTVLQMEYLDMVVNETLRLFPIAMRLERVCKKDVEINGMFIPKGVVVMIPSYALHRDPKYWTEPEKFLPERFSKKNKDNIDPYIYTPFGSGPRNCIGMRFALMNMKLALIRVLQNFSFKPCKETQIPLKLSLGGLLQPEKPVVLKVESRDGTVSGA
Procedure: (§2) The inhibitory potential of VL toward the catalytic activity of CYP3A4 and CYP1A2 was investigated through CYP inhibition assays using high‐throughput CYP450 screening kits. Stock solutions of VL (10 mM in DMSO) and specific positive controls for each CYP isoform were serially diluted in methanol and reactions were performed in 96‐well plates according to the supplier's instructions. Briefly, 40 μL (×2.5) of test compound and 50 μL master premix were added to 96‐well plates. Plates were incubated for 10 min at room temperature to allow for sufficient interaction of the test compound and enzyme. Following incubation, 10 μL (×10) of enzyme‐specific substrates were added and plates were vortex‐mixed for 30 s. Further, fluorescence was measured at the specified excitation and emission wavelengths for each substrate as recommended per individual kit protocol. Ketoconazole (0.004, 0.01, 0.03, 0.11, 0.33, and 1 μM) and α‐naphthoflavone (0.004, 0.01, 0.03, 0.11, 0.33, and 1 μM) were used as positive controls for CYP3A4 and CYP1A2, respectively. IC50 values were obtained from concentration‐response curves generated by plotting the percentage of inhibition versus concentration.^[ [46] ^]

CYP1A2 = molecular target: T3, CYP1A2 (Homo sapiens, UniProt P05177); experiment: CYP inhibition assay; format: biochemical
T3 construct: purchased
T3 sequence (P05177 1-516): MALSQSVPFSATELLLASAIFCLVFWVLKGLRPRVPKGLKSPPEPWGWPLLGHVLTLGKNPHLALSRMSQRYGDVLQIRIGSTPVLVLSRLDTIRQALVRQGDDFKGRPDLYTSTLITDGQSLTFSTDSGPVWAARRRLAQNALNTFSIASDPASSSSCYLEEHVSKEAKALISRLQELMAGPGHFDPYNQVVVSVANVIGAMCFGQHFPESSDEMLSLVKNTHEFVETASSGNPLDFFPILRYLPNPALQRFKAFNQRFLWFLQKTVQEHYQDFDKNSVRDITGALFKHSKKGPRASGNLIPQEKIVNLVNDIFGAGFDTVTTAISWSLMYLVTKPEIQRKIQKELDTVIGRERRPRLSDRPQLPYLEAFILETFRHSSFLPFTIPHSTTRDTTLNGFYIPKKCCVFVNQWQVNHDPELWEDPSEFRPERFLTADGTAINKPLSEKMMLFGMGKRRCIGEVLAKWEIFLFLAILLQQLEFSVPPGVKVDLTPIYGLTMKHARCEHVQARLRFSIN
Procedure: as §2

For `O=C1CCC(Cc2ccc(O)c(O)c2)O1` (stereo not shown) [VL, 5‐(3′,4′‐dihydroxyphenyl)‐γ‐valerolactone], the “PXR transcriptional activity, fold increase vs vehicle” value (PXR) was “does not increase the PXR activity; also recorded: < twofold”, the viability at 6 h (MTT cell viability assay) was over 90% and the “effect on cell viability” value (Caco2 cells) was “no significant effect”. The “effect on cell viability” value (HepG2 cells) was “no significant effect”, the “effect on cell viability” value (LS174T cells) was “no significant effect” and the pIC50 (CYP3A4) was under 4.60. The “inhibition of CYP1A2” value (CYP1A2) was “no inhibition effect”.
